The record followed here is patent US20260209220A1, “SUBSTITUTED TETRAHYDROPYRROLO-PYRIDINONE COMPOUNDS AND THEIR USE IN TREATING MEDICAL CONDITIONS” (Karuna Therapeutics, Inc., priority 2022, published 2026).

For one experiment, the target named is T1, hM4 receptors (Homo sapiens, UniProt P08173).
T1 construct: expressed in transfected cells; host or cells: CHO cells
T1 sequence (P08173 1-479): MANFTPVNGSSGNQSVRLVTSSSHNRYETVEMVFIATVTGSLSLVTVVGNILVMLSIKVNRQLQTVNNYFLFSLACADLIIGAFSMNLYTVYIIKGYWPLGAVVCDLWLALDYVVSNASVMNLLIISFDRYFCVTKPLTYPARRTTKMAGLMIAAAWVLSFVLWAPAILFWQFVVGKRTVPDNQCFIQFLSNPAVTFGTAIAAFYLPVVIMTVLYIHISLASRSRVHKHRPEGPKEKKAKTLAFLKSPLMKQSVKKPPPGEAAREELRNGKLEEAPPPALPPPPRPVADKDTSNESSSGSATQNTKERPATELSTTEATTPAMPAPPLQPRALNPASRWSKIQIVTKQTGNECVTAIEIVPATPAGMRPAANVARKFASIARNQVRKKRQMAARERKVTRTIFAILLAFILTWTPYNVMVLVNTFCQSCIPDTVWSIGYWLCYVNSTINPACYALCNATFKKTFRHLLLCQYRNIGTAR
The experiment is described as follows: Human M4 PAM PERK assay (CHO cells, TR-FRET, with EC20 acetylcholine). In kind it is cell-based. As to the method: (§1) Chinese hamster ovary (CHO) cells expressing either hM4 or rM4 receptors were frozen in assay ready vials (5×10^6 cells/vial) after bulking-up in culture. The day before an assay, vial(s) were thawed and cells seeded in 384 well white proxiplates at 1000/well for hM4 cells and at 2000/well for rM4 cells, in 10 μL of growth media (Hams/F12 with glutamax and 10% FCS) and incubated overnight at 37° C./5% CO2.
(§2) On the following morning, the growth media was removed by ‘flicking out’ over a bin, patting the inverted plate onto tissue, and then replacing with 10 μL of wash media (Hams/F12 with glutamax and 8 mM HEPES, NB: serum free). Then, the wash media was removed in the same way and replaced with 8 μL/well of the serum free media. Plates were then re-incubated for a further 4 hours at 37° C./5% CO2.
(§3) Compounds for testing were solubilized to 10 mM in DMSO and compound addition plates, consisting of ten-point concentration response curves (CRC) in duplicate points (10 μM top concentration, ½ log dilution series), were prepared by acoustic dispensing and the compound management group.
(§4) After the 4-hour incubation in serum free media, a 4 μL aliquot of the 3×compound solution containing an EC20 of acetylcholine (10 nM final concentration) was added to the cell plate using a 384 well plate to plate transfer. Then, the plate lid was replaced, and the cells incubated for 5 mins at 37° C./5% CO2. Following this final incubation, all cellular processes were stopped by the addition of 4 μL/well of lysis and blocking buffer and plates were incubated for 30 minutes at RT on an orbital shaker (gentle setting). Then, a final addition of 4 μL/well of antibody detection mix, containing both the Europium-Cryptate (donor) and d2 (acceptor) tagged detection components, was added followed by a further 2-hour incubation at RT, and then the plate was read using a TR-FRET (time resolved fluorescence resonance energy transfer) based protocol.
Background: In TR-FRET formats the signal depends on donor and acceptor labels being close together.

A further experiment deals with T2, rM4 receptors (Rattus norvegicus, UniProt P08485).
T2 construct: expressed in transfected cells; host or cells: CHO cells
T2 sequence (P08485 1-478): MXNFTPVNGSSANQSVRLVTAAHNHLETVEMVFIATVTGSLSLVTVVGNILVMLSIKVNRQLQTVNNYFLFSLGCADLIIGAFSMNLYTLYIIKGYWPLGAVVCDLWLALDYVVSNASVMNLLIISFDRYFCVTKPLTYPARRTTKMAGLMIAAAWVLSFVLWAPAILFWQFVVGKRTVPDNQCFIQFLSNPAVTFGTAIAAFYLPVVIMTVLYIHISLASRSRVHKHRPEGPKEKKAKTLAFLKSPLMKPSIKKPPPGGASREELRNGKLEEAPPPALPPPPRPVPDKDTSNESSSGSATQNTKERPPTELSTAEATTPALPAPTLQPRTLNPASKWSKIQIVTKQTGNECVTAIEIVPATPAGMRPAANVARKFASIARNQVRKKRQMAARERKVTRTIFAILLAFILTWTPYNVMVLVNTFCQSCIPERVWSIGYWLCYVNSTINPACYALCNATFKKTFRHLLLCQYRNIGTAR
Briefly: Rat M4 PAM PERK assay (CHO cells, TR-FRET, with EC20 acetylcholine). The class given is cell-based. As to the method:
as §1, §2, §3, §4

Each structure is given as a SMILES string. Some results are limits rather than exact numbers.

One may read the EC50 as the concentration needed to bring the measured effect to its halfway point. Read a low EC50 as an effect from little substance.

For `Cc1c2c(n(C)c(=O)c1Cl)CN(C(=O)CC1CN(c3ccnnc3)C1)C2` [Compound I-81, 3-Chloro-1,4-dimethyl-6-(2-(1-(pyridazin-4-yl)azetidin-3-yl)acetyl)-1,5,6,7-tetrahydro-2H-pyrrolo[3,4-b]pyridin-2-one], the results for the half-maximal effective concentration (EC50) on hM4 receptors and on rM4 receptors were under 50 nM and over 1000 nM, respectively.
In the case of `Cc1c2c(n(CC(F)(F)F)c(=O)c1Cl)CN(C(=O)CC1CN(c3cncnc3)C1)C2` [Compound I-96], the values for the half-maximal effective concentration (EC50) at hM4 receptors and at rM4 receptors were 50 to 200 nM and 200 to 1000 nM, respectively.
With `Cc1c2c(n(C)c(=O)c1C1CC1)CN(C(=O)CC1CN(c3ccnc(C(F)(F)F)c3)C1)C2` [Compound I-109, 3-Cyclopropyl-1,4-dimethyl-6-(2-(1-(2-(trifluoromethyl)pyridin-4-yl)azetidin-3-yl)acetyl)-1,5,6,7-tetrahydro-2H-pyrrolo[3,4-b]pyridin-2-one], the EC50 at hM4 receptors lay within 50 to 200 nM; at rM4 receptors it was 200 to 1000 nM.
Take `Cc1cc(=O)n(C)c2c1CN(C(=O)CC1CN(c3ccc(F)c(F)c3)C1)C2` [Compound I-32]: the EC50 lay within 50 to 200 nM at hM4 receptors and 200 to 1000 nM at rM4 receptors.
Turning to `COc1cccc(N2CC(CC(=O)N3Cc4c(C)c(C)c(=O)n(C)c4C3)C2)c1` [Compound I-47], the concentration giving a half-maximal response (EC50) on hM4 receptors lay in the range of 50 to 200 nM; on rM4 receptors, 200 to 1000 nM.
Consider `Cc1cc(=O)n(C)c2c1CN(C(=O)CC1CN(c3ccccn3)C1)C2` [Compound I-9], for which the EC50 at hM4 receptors is under 50 nM; at rM4 receptors it was 200 to 1000 nM.
On to `Cc1c2c(n(C)c(=O)c1Cl)CN(C(=O)C(C)C1CN(c3ccnc(C(F)(F)F)c3)C1)C2` (single isomer, unassigned) [Compound I-83, 3-Chloro-1,4-dimethyl-6-(2-(1-(2-(trifluoromethyl)pyridin-4-yl)azetidin-3-yl)propanoyl)-1,5,6,7-tetrahydro-2H-pyrrolo[3,4-b]pyridin-2-one], for which the concentration giving a half-maximal response (EC50) on hM4 receptors and on rM4 receptors was over 1000 nM each time.
Regarding `Cc1c2c(n(C)c(=O)c1C(F)(F)F)CN(C(=O)CC1CN(c3cccnc3)C1)C2` [Compound I-108, 1,4-Dimethyl-6-(2-(1-(pyridin-3-yl)azetidin-3-yl)acetyl)-3-(trifluoromethyl)-1,5,6,7-tetrahydro-2H-pyrrolo[3,4-b]pyridin-2-one], the results for the 50% effective concentration (EC50) at hM4 receptors and on rM4 receptors were 50 to 200 nM and over 1000 nM, respectively.
With `COc1c2c(n(C)c(=O)c1C)CN(C(=O)CC1CN(c3ccncn3)C1)C2` [Compound I-98], the results for the concentration giving a half-maximal response (EC50) at hM4 receptors and on rM4 receptors were under 50 nM and over 1000 nM, respectively.
For `Cc1c2c(n(C)c(=O)c1Cl)CN(C(=O)CC1CN(c3ccncn3)C1)C2` [Compound I-70], the EC50 is under 50 nM at hM4 receptors and 200 to 1000 nM at rM4 receptors.
For `COc1c2c(n(C)c(=O)c1C)CN(C(=O)CC1CN(c3ccnc(C(F)(F)F)c3)C1)C2` [Compound I-97, 4-Methoxy-1,3-dimethyl-6-(2-(1-(2-(trifluoromethyl)pyridin-4-yl)azetidin-3-yl)acetyl)-1,5,6,7-tetrahydro-2H-pyrrolo[3,4-b]pyridin-2-one], the half-maximal effective concentration (EC50) at hM4 receptors was under 50 nM; on rM4 receptors, 200 to 1000 nM.
As to `Cc1cc(=O)n(C)c2c1CN(C(=O)CC1CN(c3ccc(S(C)(=O)=O)cc3)C1)C2` [Compound I-2, 1,4-Dimethyl-6-(2-(1-(4-(methylsulfonyl)phenyl)azetidin-3-yl)acetyl)-1,5,6,7-tetrahydro-2H-pyrrolo[3,4-b]pyridin-2-one], the values for the EC50 at hM4 receptors and on rM4 receptors were 50 to 200 nM and over 1000 nM, respectively.
Take `Cc1cc(=O)n(C)c2c1C(C)N(C(=O)CC1CN(c3ccnc(C(F)(F)F)c3)C1)C2` (racemic) [Compound I-113, (±)-1,4,5-Trimethyl-6-(2-(1-(2-(trifluoromethyl)pyridin-4-yl)azetidin-3-yl)acetyl)-1,5,6,7-tetrahydro-2H-pyrrolo[3,4-b]pyridin-2-one]: the EC50 on hM4 receptors and at rM4 receptors was over 1000 nM each time.
`Cc1c2c(n(CC(F)(F)F)c(=O)c1Cl)CN(C(=O)CC1CN(c3cccnc3)C1)C2` [Compound I-93, 3-Chloro-4-methyl-6-(2-(1-(pyridin-3-yl)azetidin-3-yl)acetyl)-1-(2,2,2-trifluoroethyl)-1,5,6,7-tetrahydro-2H-pyrrolo[3,4-b]pyridin-2-one]: the EC50 at hM4 receptors and at rM4 receptors was 50 to 200 nM each time.
For the compound `Cc1c2c(n(C)c(=O)c1C)CN(C(=O)CC1CN(c3cnc(C(F)(F)F)cn3)C1)C2` [Compound I-50], the EC50 at hM4 receptors was in the range of 200 to 1000 nM; on rM4 receptors it was 50 to 200 nM.
On to `Cc1c2c(n(C)c(=O)c1Cl)CN(C(=O)CC1CN(c3cnccn3)C1)C2` [Compound I-72], for which the EC50 at hM4 receptors is under 50 nM; on rM4 receptors, 50 to 200 nM.
Consider `Cc1c2c(n(C)c(=O)c1C)CN(C(=O)CC1CN(c3ccc(F)c(C(F)(F)F)c3)C1)C2` [Compound I-49], for which the half-maximal effective concentration (EC50) on hM4 receptors and on rM4 receptors was 50 to 200 nM in each case.
In the case of `COc1cc(N2CC(CC(=O)N3Cc4c(C)c(C)c(=O)n(C)c4C3)C2)cc(C(F)(F)F)n1` [Compound I-54], the EC50 on hM4 receptors and on rM4 receptors was 200 to 1000 nM in each case.
On to `COc1cc(N2CC(CC(=O)N3Cc4c(C)c(Cl)c(=O)n(C)c4C3)C2)ccn1` [Compound I-77], for which the half-maximal effective concentration (EC50) is under 50 nM at hM4 receptors and 200 to 1000 nM at rM4 receptors.
The matching figures for `Cc1c2c(n(C)c(=O)c1F)CN(C(=O)CC1CN(c3cccc(F)c3F)C1)C2` [Compound I-87]: under 50 nM and 50 to 200 nM.
Consider `Cc1c2c(n(C)c(=O)c1C)CN(C(=O)CC1CN(c3ccc(C4CC4)c(F)c3)C1)C2` [Compound I-53], for which the results for the EC50 at hM4 receptors and at rM4 receptors were under 50 nM and 50 to 200 nM, respectively.
For `COc1cncc(N2CC(CC(=O)N3Cc4c(C)c(Cl)c(=O)n(C)c4C3)C2)c1` [Compound I-75], the EC50 at hM4 receptors was under 50 nM; on rM4 receptors, over 1000 nM.
Take `Cc1cc(=O)n(CC(F)(F)F)c2c1CN(C(=O)CC1CN(c3ccc(C(F)(F)F)cc3)C1)C2` [Compound I-105, 4-Methyl-1-(2,2,2-trifluoroethyl)-6-(2-(1-(4-(trifluoromethyl)phenyl)azetidin-3-yl)acetyl)-1,5,6,7-tetrahydro-2H-pyrrolo[3,4-b]pyridin-2-one]: the 50% effective concentration (EC50) on hM4 receptors is over 1000 nM; on rM4 receptors, 200 to 1000 nM.
